# From PubChem BioAssay (NCI)
#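 Exposure lasted 48 hours, with cells grown in 96-well plates and compounds tested at five concentrations. At the GI50, growth is halved. TGI: total growth inhibition.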
# How the values were obtained:
# Experiment in all cases: NCI tumour cell line growth inhibition, 48 h
# T-47D breast = system: T-47D breast
# NCI-H226 lung = system: NCI-H226 lung
# SF-268 CNS = system: SF-268 CNS
# UACC-62 melanoma = system: UACC-62 melanoma
# SK-MEL-5 melanoma = system: SK-MEL-5 melanoma
# HT29 colon = system: HT29 colon
# PC-3 prostate = system: PC-3 prostate
# HOP-92 NSCLC = system: HOP-92 NSCLC
# HCC-2998 colon = system: HCC-2998 colon
# MOLT-4 leukemia = system: MOLT-4 leukemia
# U251 CNS = system: U251 CNS
# BT-549 breast = system: BT-549 breast
# HOP-62 NSCLC = system: HOP-62 NSCLC
# NCI/ADR-RES ovarian = system: NCI/ADR-RES ovarian
# A498 renal = system: A498 renal
# A549 NSCLC = system: A549 NSCLC
# UO-31 renal = system: UO-31 renal
# SNB-19 CNS = system: SNB-19 CNS
# KM12 colon = system: KM12 colon
# NCI-H23 lung = system: NCI-H23 lung
# SN12C renal = system: SN12C renal
# HCT-15 colon = system: HCT-15 colon
# CCRF-CEM leukemia = system: CCRF-CEM leukemia
# UACC-257 melanoma = system: UACC-257 melanoma
# ACHN renal = system: ACHN renal
# SF-295 CNS = system: SF-295 CNS
# SNB-75 CNS = system: SNB-75 CNS
# DU-145 prostate = system: DU-145 prostate
# OVCAR-8 ovarian = system: OVCAR-8 ovarian
# NCI-H522 lung = system: NCI-H522 lung
# RXF 393 renal = system: RXF 393 renal
# SK-MEL-28 melanoma = system: SK-MEL-28 melanoma
# MCF7 breast = system: MCF7 breast
# TK-10 renal = system: TK-10 renal
# COLO 205 colon = system: COLO 205 colon
# RPMI-8226 leukemia = system: RPMI-8226 leukemia
# SF-539 CNS = system: SF-539 CNS
# IGROV1 ovarian = system: IGROV1 ovarian
# CAKI-1 renal = system: CAKI-1 renal
# K-562 leukemia = system: K-562 leukemia
# SK-MEL-2 melanoma = system: SK-MEL-2 melanoma
# NCI-H460 lung = system: NCI-H460 lung
# SK-OV-3 ovarian = system: SK-OV-3 ovarian
# HS 578T breast = system: HS 578T breast
# LOX IMVI melanoma = system: LOX IMVI melanoma
# MALME-3M melanoma = system: MALME-3M melanoma
# OVCAR-5 ovarian = system: OVCAR-5 ovarian
# HCT-116 colon = system: HCT-116 colon
# OVCAR-3 ovarian = system: OVCAR-3 ovarian
# SW-620 colon = system: SW-620 colon
# M14 melanoma = system: M14 melanoma
# 786-0 renal = system: 786-0 renal
# OVCAR-4 ovarian = system: OVCAR-4 ovarian
# MDA-MB-231 breast = system: MDA-MB-231 breast
# EKVX NSCLC = system: EKVX NSCLC
compound,measurement,setting,value
COc1cccc(/C(COc2ccc3c(c2)oc(=O)c2cc(OC)ccc23)=N/O)c1,GI50,T-47D breast,4.85 µM
same,TGI,T-47D breast,> 100 µM
same,GI50,NCI-H226 lung,51.9 µM
same,TGI,NCI-H226 lung,> 100 µM
same,GI50,SF-268 CNS,9.58 µM
same,TGI,SF-268 CNS,> 100 µM
same,GI50,UACC-62 melanoma,4.25 µM
same,TGI,UACC-62 melanoma,> 100 µM
same,GI50,SK-MEL-5 melanoma,4.95 µM
same,TGI,SK-MEL-5 melanoma,80.5 µM
same,GI50,HT29 colon,3.38 µM
same,TGI,HT29 colon,> 100 µM
same,GI50,PC-3 prostate,6.29 µM
same,TGI,PC-3 prostate,> 100 µM
same,GI50,HOP-92 NSCLC,37 µM
same,TGI,HOP-92 NSCLC,> 100 µM
same,GI50,HCC-2998 colon,7.78 µM
same,TGI,HCC-2998 colon,> 100 µM
same,GI50,MOLT-4 leukemia,5.61 µM
same,TGI,MOLT-4 leukemia,> 100 µM
same,GI50,U251 CNS,4.35 µM
same,TGI,U251 CNS,> 100 µM
same,GI50,BT-549 breast,11.7 µM
same,TGI,BT-549 breast,> 100 µM
same,GI50,HOP-62 NSCLC,6.9 µM
same,TGI,HOP-62 NSCLC,> 100 µM
same,GI50,NCI/ADR-RES ovarian,3.63 µM
same,TGI,NCI/ADR-RES ovarian,> 100 µM
same,GI50,A498 renal,3.02 µM
same,TGI,A498 renal,25.8 µM
same,GI50,A549 NSCLC,7.57 µM
same,TGI,A549 NSCLC,> 100 µM
same,GI50,UO-31 renal,7.11 µM
same,TGI,UO-31 renal,75.6 µM
same,GI50,SNB-19 CNS,3.66 µM
same,TGI,SNB-19 CNS,> 100 µM
same,GI50,KM12 colon,3.86 µM
same,TGI,KM12 colon,> 100 µM
same,GI50,NCI-H23 lung,33.4 µM
same,TGI,NCI-H23 lung,> 100 µM
same,GI50,SN12C renal,14.2 µM
same,TGI,SN12C renal,> 100 µM
same,GI50,HCT-15 colon,3.99 µM
same,TGI,HCT-15 colon,> 100 µM
same,GI50,CCRF-CEM leukemia,11.4 µM
same,TGI,CCRF-CEM leukemia,> 100 µM
same,GI50,UACC-257 melanoma,34.8 µM
same,TGI,UACC-257 melanoma,> 100 µM
same,GI50,ACHN renal,3.64 µM
same,TGI,ACHN renal,> 100 µM
same,GI50,SF-295 CNS,8.22 µM
same,TGI,SF-295 CNS,> 100 µM
same,GI50,SNB-75 CNS,2.36 µM
same,TGI,SNB-75 CNS,9.61 µM
same,GI50,DU-145 prostate,26 µM
same,TGI,DU-145 prostate,> 100 µM
same,GI50,OVCAR-8 ovarian,9.77 µM
same,TGI,OVCAR-8 ovarian,> 100 µM
same,GI50,NCI-H522 lung,3.12 µM
same,TGI,NCI-H522 lung,9.47 µM
same,GI50,RXF 393 renal,> 100 µM
same,TGI,RXF 393 renal,> 100 µM
same,GI50,SK-MEL-28 melanoma,4.28 µM
same,TGI,SK-MEL-28 melanoma,> 100 µM
same,GI50,MCF7 breast,4.02 µM
same,TGI,MCF7 breast,> 100 µM
same,GI50,TK-10 renal,16.5 µM
same,TGI,TK-10 renal,> 100 µM
same,GI50,COLO 205 colon,4.25 µM
same,TGI,COLO 205 colon,> 100 µM
same,GI50,RPMI-8226 leukemia,4.76 µM
same,TGI,RPMI-8226 leukemia,> 100 µM
same,GI50,SF-539 CNS,6.55 µM
same,TGI,SF-539 CNS,81.5 µM
same,GI50,IGROV1 ovarian,3.8 µM
same,TGI,IGROV1 ovarian,> 100 µM
same,GI50,CAKI-1 renal,6.7 µM
same,TGI,CAKI-1 renal,> 100 µM
same,GI50,K-562 leukemia,4.43 µM
same,TGI,K-562 leukemia,> 100 µM
same,GI50,SK-MEL-2 melanoma,6.62 µM
same,TGI,SK-MEL-2 melanoma,> 100 µM
same,GI50,NCI-H460 lung,3.81 µM
same,TGI,NCI-H460 lung,> 100 µM
same,GI50,SK-OV-3 ovarian,66.1 µM
same,TGI,SK-OV-3 ovarian,> 100 µM
same,GI50,HS 578T breast,14.5 µM
same,TGI,HS 578T breast,> 100 µM
same,GI50,LOX IMVI melanoma,7.14 µM
same,TGI,LOX IMVI melanoma,> 100 µM
same,GI50,MALME-3M melanoma,> 100 µM
same,TGI,MALME-3M melanoma,> 100 µM
same,GI50,OVCAR-5 ovarian,> 100 µM
same,TGI,OVCAR-5 ovarian,> 100 µM
same,GI50,HCT-116 colon,4.27 µM
same,TGI,HCT-116 colon,> 100 µM
same,GI50,OVCAR-3 ovarian,4.18 µM
same,TGI,OVCAR-3 ovarian,> 100 µM
same,GI50,SW-620 colon,3.9 µM
same,TGI,SW-620 colon,> 100 µM
same,GI50,M14 melanoma,3.62 µM
same,TGI,M14 melanoma,> 100 µM
same,GI50,786-0 renal,9.66 µM
same,TGI,786-0 renal,> 100 µM
same,GI50,OVCAR-4 ovarian,18.8 µM
same,TGI,OVCAR-4 ovarian,> 100 µM
same,GI50,MDA-MB-231 breast,4.37 µM
same,TGI,MDA-MB-231 breast,71 µM
same,GI50,EKVX NSCLC,16.1 µM
same,TGI,EKVX NSCLC,> 100 µM
